Source: patent US11066392B2, “Inhibitors of indoleamine 2,3-dioxygenase and methods of their use” (BRISTOL-MYERS SQUIBB COMPANY, priority 2017, dated 2021)
pIC50: −log10 of the molar value. Read-outs that look alike come from different tables or passages of the source.

Molecular target: indoleamine 2,3-dioxygenase (IDO) (Homo sapiens, UniProt P14902)
Test: HeLa cell-based indoleamine 2,3-dioxygenase (IDO) assay (kynurenine production, IFNγ-stimulated)
Conditions: HeLa cells
Method: Assessment of inhibitor activity in HeLa cell-based indoleamine 2,3-dioxygenase (IDO) assay. HeLa (ATCC® CCL-2) cells were obtained from the ATCC® and cultured in Dulbecco's Modified Eagle Medium supplemented with 4.5 g/L glucose, 4.5 […] sodium pyruvate (#10-013-CV, Corning), 2 mM L-alanyl-L-glutamine dipeptide (#35050-061, Gibco), 100U/mL penicillin, 100 μg/mL streptomycin (#SV30010, HyClone) and 10% fetal bovine serum (#SH30071.03 HyClone). Cells were maintained in a humidified incubator at 37° C. in 5% CO2. […] After 24 hours, the media was aspirated and replaced with media containing IFNγ (#285-IF/CF, R&D Systems) at a final concentration of 25 ng/mL. A serial dilution of each test compound was added to the cells in a total volume of 200 μL of culture medium. After a further 48 hour incubation, 170 μL of supernatant was transferred from each well to a fresh 96-well plate. 12.1 μL of 6.1N trichloroacetic acid (#T0699, Sigma-Aldrich) was added to each well and mixed, followed by incubation at 65° C. for 20 minutes to hydrolyze N-formylkynurenine, the product of indoleamine 2,3-dioxygenase, to kynurenine. The reaction mixture was then centrifuged for 10 mins at 500×g to sediment the precipitate. 100 μL of the supernatant was transferred from each well to a fresh 96-well plate. 100 μl of 2% (w/v) p-dimethylaminobenzaldehyde (#15647-7, Sigma-Aldrich) in acetic acid (#A6283, Sigma-Aldrich) was added to each well mixed and incubated at room temperature for 20 mins. Kynurenine concentrations were determined by measuring absorbance at 480 nm and calibrating against an L-kynurenine (#K8625, Sigma-Aldrich) standard curve using a SPECTRAMAX® M2e microplate reader (Molecular Devices). The percentage activity at each inhibitor concentration was determined and IC50 values assessed using nonlinear regression. Activity for compounds described herein is provided in Table 1, wherein potency levels are provided as follows: (Potency: IDO IC50: […])

[1] = IFNγ 25 ng/mL, 48 hour incubation, read-out: IDO Hela IC50
[2] = potency class, read-out: Patent Potency Hela IC50 A < 10 nM, B > 10 nM, C > 100 nM

Chain of indoleamine 2,3-dioxygenase (IDO) (P14902 whole entry): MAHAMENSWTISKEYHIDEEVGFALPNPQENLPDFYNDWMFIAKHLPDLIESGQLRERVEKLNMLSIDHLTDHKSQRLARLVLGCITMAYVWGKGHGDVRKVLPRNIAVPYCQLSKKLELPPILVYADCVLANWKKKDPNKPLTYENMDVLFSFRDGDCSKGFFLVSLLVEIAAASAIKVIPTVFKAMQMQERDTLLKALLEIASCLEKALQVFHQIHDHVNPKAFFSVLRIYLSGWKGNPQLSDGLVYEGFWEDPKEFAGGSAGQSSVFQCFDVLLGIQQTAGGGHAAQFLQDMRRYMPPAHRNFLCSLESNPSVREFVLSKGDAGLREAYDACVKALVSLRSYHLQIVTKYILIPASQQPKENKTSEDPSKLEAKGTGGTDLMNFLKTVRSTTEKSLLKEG

| pIC50 [1] | pIC50 [2] | Structure (SMILES) |
| --- | --- | --- |
|  | > 8.00 | CC[C@@H](NC(=O)c1ccc(OC)nc1)[C@H]1CC[C@@H](c2ccnc3c(F)cccc32)CC1 (relative stereo) [Example 59b, N-(1-(4-(8-fluoroquinolin-4-yl)cyclohexyl)propyl)-6-methoxynicotinamide] |
| 7.52 |  | COc1ccc(C(=O)N[C@H](CC2(C)COC2)[C@H]2CC[C@@H](c3ccnc4ccc(C(F)(F)F)cc43)CC2)cn1 (single isomer, unassigned) [Example 17a, 6-Methoxy-N-(2-(3-methyloxetan-3-yl)-1-(4-(6-(trifluoromethyl)quinolin-4-yl)cyclohexyl)ethyl)nicotinamide] |
| 6.46 |  | COc1ccc(C(=O)N[C@H](CC2(C)COC2)[C@H]2CC[C@@H](c3ccnc4ccc(C(F)(F)F)cc43)CC2)cn1 (single isomer, unassigned) [Example 17b, 6-Methoxy-N-(2-(3-methyloxetan-3-yl)-1-(4-(6-(trifluoromethyl)quinolin-4-yl)cyclohexyl)ethyl)nicotinamide] |
|  | < 7.00 | COc1ccc(C(=O)N[C@H](CC2(C)COC2)[C@H]2CC[C@@H](c3ccnc4ccc(C(F)(F)F)cc43)CC2)cn1 (single isomer, unassigned) [Example 17c, 6-Methoxy-N-(2-(3-methyloxetan-3-yl)-1-(4-(6-(trifluoromethyl)quinolin-4-yl)cyclohexyl)ethyl)nicotinamide] |
|  | < 7.00 | COc1ccc(C(=O)N[C@H](CC2(C)COC2)[C@H]2CC[C@@H](c3ccnc4ccc(C(F)(F)F)cc43)CC2)cn1 (single isomer, unassigned) [Example 17d, 6-Methoxy-N-(2-(3-methyloxetan-3-yl)-1-(4-(6-(trifluoromethyl)quinolin-4-yl)cyclohexyl)ethyl)nicotinamide] |
| 6.08 |  | CCC(NC(=O)c1ccc(OC)nc1)C1CCC(c2ccnc3c(C(F)(F)F)cccc23)CC1 (single isomer, unassigned) [Example 18a, 6-Methoxy-N-(1-((1s,4s)-4-(8-(trifluoromethyl)quinolin-4-yl)cyclohexyl)propyl)nicotinamide] |
|  | > 8.00 | CCC(NC(=O)c1ccc(OC)nc1)C1CCC(c2ccnc3c(C(F)(F)F)cccc23)CC1 (single isomer, unassigned) [Example 18b, 6-Methoxy-N-(1-((1s,4s)-4-(8-(trifluoromethyl)quinolin-4-yl)cyclohexyl)propyl)nicotinamide] |
|  | < 7.00 | CCC(NC(=O)c1ccc(OC)nc1)C1CCC(c2ccnc3cc(C(F)(F)F)ccc23)CC1 (single isomer, unassigned) [Example 19a, 6-Methoxy-N-(1-((1s,4s)-4-(7-(trifluoromethyl)quinolin-4-yl)cyclohexyl)propyl)nicotinamide] |
| 8.00 |  | CCC(NC(=O)c1ccc(OC)nc1)C1CCC(c2ccnc3cc(C(F)(F)F)ccc23)CC1 (single isomer, unassigned) [Example 19b, 6-Methoxy-N-(1-((1s,4s)-4-(7-(trifluoromethyl)quinolin-4-yl)cyclohexyl)propyl)nicotinamide] |

Continued, compound first:

| Structure (SMILES) | pIC50 [1] | pIC50 [2] |
| --- | --- | --- |
| CCC(NC(=O)c1ccc(OC)nc1)C1CCC(c2ccnc3ncccc23)CC1 (mixture of isomers) [Example 52, (+/−)-Cis and trans N-(1-(4-(1,8-naphthyridin-4-yl)cyclohexyl)propyl)-6-methoxynicotinamide] | 7.52 |  |
| CCC(NC(=O)c1ccc(OC)nc1)C1CCC(c2ccnc(F)c2C)CC1 (mixture of isomers) [Example 55, (+/−)-Cis and trans-N-(1-(4-(2-fluoro-3-methylpyridin-4-yl)cyclohexyl)propyl)-6-methoxynicotinamide] |  | > 8.00 |
| CCC(NC(=O)c1ccc(OC)nc1)[C@H]1CC[C@@H](c2ccnc3c(OC)cc(C(F)(F)F)cc32)CC1 (mixture of isomers) [Example 44, (±)-6-methoxy-N-(1-((cis)-4-(8-methoxy-6-(trifluoromethyl)quinolin-4-yl)cyclohexyl)propyl)nicotinamide] | 8.00 |  |
| COc1ccc(C(=O)NC(CC#N)[C@H]2CC[C@@H](c3ccnc4ccc(F)cc43)CC2)cn1 (mixture of isomers) [Example 54, Cis or trans-N-(2-cyano-1-((1s,4s)-4-(6-fluoroquinolin-4-yl)cyclohexyl)ethyl)-6-methoxynicotinamide] | 8.00 |  |
| [2H]C([2H])([2H])Oc1ccc(C(=O)NC(CC)[C@H]2CC[C@@H](c3ccnc(OC)c3C(F)F)CC2)cn1 (mixture of isomers) [Example 65, (±)-N-(1-((1s,4s)-4-(3-(difluoromethyl)-2-methoxypyridin-4-yl)cyclohexyl)propyl)-6-(methoxy-d3)nicotinamide] |  | > 8.00 |
| CCC(NC(=O)c1ccc(OC)nc1)[C@H]1CC[C@H](c2ccnc(F)c2C)CC1 (mixture of isomers) [Example 67, (±)-N-(1-((1r,4r)-4-(2-fluoro-3-methylpyridin-4-yl)cyclohexyl)propyl)-6-methoxynicotinamide] |  | < 7.00 |
| CCC(NC(=O)c1ccc(OC)nc1)C1CCC(c2ccnc3ccc(C(F)(F)F)cc23)CC1 (single isomer, unassigned) [Example 11a, 6-Methoxy-N-(1-((1s,4s)-4-(6-(trifluoromethyl)quinolin-4-yl)cyclohexyl)propyl)nicotinamide] | 7.00 |  |
| CCC(NC(=O)c1ccc(OC)nc1)C1CCC(c2ccnc3ccc(C(F)(F)F)cc23)CC1 (single isomer, unassigned) [Example 11b, 6-Methoxy-N-(1-((1s,4s)-4-(6-(trifluoromethyl)quinolin-4-yl)cyclohexyl)propyl)nicotinamide] |  | > 8.00 |
| COCC(NC(=O)c1ccc(OC)nc1)C1CCC(c2ccnc3ccc(C(F)(F)F)cc23)CC1 (single isomer, unassigned) [Example 12a, 6-Methoxy-N-(2-methoxy-1-((1s,4s)-4-(6-(trifluoromethyl)quinolin-4-yl)cyclohexyl)ethyl)nicotinamide] | 7.10 |  |
| COCC(NC(=O)c1ccc(OC)nc1)C1CCC(c2ccnc3ccc(C(F)(F)F)cc23)CC1 (single isomer, unassigned) [Example 12b, 6-Methoxy-N-(2-methoxy-1-((1s,4s)-4-(6-(trifluoromethyl)quinolin-4-yl)cyclohexyl)ethyl)nicotinamide] |  | > 8.00 |
| CCOC[C@@H](NC(=O)c1ccc(OC)nc1)[C@H]1CC[C@@H](c2ccnc3ccc(C(F)(F)F)cc32)CC1 (single isomer, unassigned) [Example 13a, N-(2-Ethoxy-1-(4-(6-(trifluoromethyl)quinolin-4-yl)cyclohexyl)ethyl)-6-methoxynicotinamide] | 7.10 |  |
| CCOC[C@@H](NC(=O)c1ccc(OC)nc1)[C@H]1CC[C@@H](c2ccnc3ccc(C(F)(F)F)cc32)CC1 (single isomer, unassigned) [Example 13b, N-(2-Ethoxy-1-(4-(6-(trifluoromethyl)quinolin-4-yl)cyclohexyl)ethyl)-6-methoxynicotinamide] |  | > 8.00 |
| CCOC[C@@H](NC(=O)c1ccc(OC)nc1)[C@H]1CC[C@@H](c2ccnc3ccc(C(F)(F)F)cc32)CC1 (single isomer, unassigned) [Example 13d, N-(2-Ethoxy-1-(4-(6-(trifluoromethyl)quinolin-4-yl)cyclohexyl)ethyl)-6-methoxynicotinamide] | 6.03 |  |
| COCCOCC(NC(=O)c1ccc(OC)nc1)C1CCC(c2ccnc3ccc(F)cc23)CC1 (single isomer, unassigned) [Example 15a, N-(1-((1s,4s)-4-(6-Fluoroquinolin-4-yl)cyclohexyl)-2-(2-methoxyethoxy)ethyl)-6-methoxynicotinamide] |  | > 8.00 |
| COCCOCC(NC(=O)c1ccc(OC)nc1)C1CCC(c2ccnc3ccc(F)cc23)CC1 (single isomer, unassigned) [Example 15b, N-(1-((1s,4s)-4-(6-Fluoroquinolin-4-yl)cyclohexyl)-2-(2-methoxyethoxy)ethyl)-6-methoxynicotinamide] | 8.00 |  |
| COCCOCC(NC(=O)c1cnc(OC)nc1)C1CCC(c2ccnc3ccc(F)cc23)CC1 (single isomer, unassigned) [Example 16a, N-(1-((1s,4s)-4-(6-Fluoroquinolin-4-yl)cyclohexyl)-2-(2-methoxyethoxy)ethyl)-2-methoxypyrimidine-5-carboxamide] | 7.40 |  |
| COCCOCC(NC(=O)c1cnc(OC)nc1)C1CCC(c2ccnc3ccc(F)cc23)CC1 (single isomer, unassigned) [Example 16b, N-(1-((1s,4s)-4-(6-Fluoroquinolin-4-yl)cyclohexyl)-2-(2-methoxyethoxy)ethyl)-2-methoxypyrimidine-5-carboxamide] |  | > 8.00 |
